# Results published in patent US11000490B2, “Stable aqueous capsaicin injectable formulations and medical uses thereof” (priority 2016, dated 2021).
# What was measured:
# purebred beagle dogs = conditions: single intra-articular dose via Capsaicin Formulation A
# [1] = tested on: New Zealand White rabbits; conditions: single intra-articular dose as Capsaicin Formulation A
# in vivo = conditions: both sexes, New Zealand White, rabbit, rabbits, 0.3 mg trans-capsaicin as Capsaicin Formulation A, intra-articular, Day 1, combined males and females
# Description: Animals were administered a single dose of test article (i.e., Capsaicin Formulation A, or placebo) on Day 1 via intra-articular injection into the right stifle joint. Dosing was followed by an observation period of 4 weeks. […] Prior to injection of test article, animals were sedated via gas anesthesia with sevoflurane. The gas was administered by designated technicians using a nose cone. Following anesthesia but prior to intra-articular injection, the injection site was prepared aseptically with three or more chlorhexidine scrubs, wiping with sterile water between each scrub. Animals were administered 1 mg/kg of midazolam and 0.6 mg/kg of meloxicam SR subcutaneously prior to gas anesthesia. […] The animal was monitored for pain and discomfort during recovery and was returned to its home cage after complete recovery. […] Additional pain management of animals was monitored by veterinary staff.
# Assessment of toxicity was based on mortality, clinical observations (including qualitative food consumption), body weights, physical examinations, and clinical and anatomic pathology. […] Plasma samples were analyzed for capsaicin content. […] Abnormal findings or an indication of normal were recorded. Body weights were recorded twice during the pre-dose phase and on Days 1, 8, 15, and 22 of the dosing phase. […]
structure (smiles),measurement,setting,value
"COc1cc(CNC(=O)CCCCC=CC(C)C)ccc1O [trans-capsaicin, N-[(4-hydroxy-3-methoxyphenyl)methyl]-8-methylnon-6-enamide]",no observed adverse effect level (NOAEL),purebred beagle dogs,1 mg
same,no observed adverse effect level (NOAEL),[1],0.3 mg
same,Cmax,in vivo,37.9 ng/mL
same,AUC(0-t),in vivo; read-out: mean AUC0-24,27.8 ng·h/mL
